From the NIST ThermoML archive (doi:10.1021/je700287u)

Assay: xn = mol fraction of the nth substance listed
Conditions: Liquid

CN(CCO)CCO [N-methyldiethanolamine] + O
Conditions | mass density [kg/m3]
352.84 K, 15989 kPa, x1 = 0.1302 | 1010.4
352.84 K, 16976 kPa, x1 = 0.1302 | 1010.8
352.84 K, 17977 kPa, x1 = 0.1302 | 1011.2
352.84 K, 18979 kPa, x1 = 0.1302 | 1011.6
352.84 K, 19995 kPa, x1 = 0.1302 | 1012
352.85 K, 1004 kPa, x1 = 0.0369 | 983.9
352.85 K, 2037 kPa, x1 = 0.0369 | 984.4
352.85 K, 2962 kPa, x1 = 0.0369 | 984.8
352.85 K, 4014 kPa, x1 = 0.0369 | 985.2
352.85 K, 4994 kPa, x1 = 0.0369 | 985.6
352.85 K, 6034 kPa, x1 = 0.0369 | 986.1
352.85 K, 6999 kPa, x1 = 0.0369 | 986.5
352.85 K, 8019 kPa, x1 = 0.0369 | 987
352.85 K, 8987 kPa, x1 = 0.0369 | 987.3
352.85 K, 9992 kPa, x1 = 0.0369 | 987.8
352.85 K, 10987 kPa, x1 = 0.0369 | 988.2
352.85 K, 11994 kPa, x1 = 0.0369 | 988.6
352.85 K, 12978 kPa, x1 = 0.0369 | 989.1
352.85 K, 13987 kPa, x1 = 0.0369 | 989.4
352.85 K, 14998 kPa, x1 = 0.0369 | 989.9
352.85 K, 15956 kPa, x1 = 0.0369 | 990.2
352.85 K, 16987 kPa, x1 = 0.0369 | 990.7
352.85 K, 17991 kPa, x1 = 0.0369 | 991.1
352.85 K, 18986 kPa, x1 = 0.0369 | 991.5
352.85 K, 19988 kPa, x1 = 0.0369 | 991.9
352.88 K, 1037 kPa, x1 = 0.0893 | 998.6
352.88 K, 2010 kPa, x1 = 0.0893 | 999
352.88 K, 3005 kPa, x1 = 0.0893 | 999.5
352.88 K, 4010 kPa, x1 = 0.0893 | 999.9
352.88 K, 4999 kPa, x1 = 0.0893 | 1000.3
352.88 K, 5993 kPa, x1 = 0.0893 | 1000.7
352.88 K, 7000 kPa, x1 = 0.0893 | 1001.1
352.88 K, 7998 kPa, x1 = 0.0893 | 1001.6
352.88 K, 8982 kPa, x1 = 0.0893 | 1002
352.88 K, 9977 kPa, x1 = 0.0893 | 1002.4
352.88 K, 10995 kPa, x1 = 0.0893 | 1002.8
352.88 K, 11987 kPa, x1 = 0.0893 | 1003.3
352.88 K, 12999 kPa, x1 = 0.0893 | 1003.7
352.88 K, 13990 kPa, x1 = 0.0893 | 1004.1
352.88 K, 14969 kPa, x1 = 0.0893 | 1004.5
352.88 K, 15990 kPa, x1 = 0.0893 | 1004.9
352.88 K, 16991 kPa, x1 = 0.0893 | 1005.3
352.88 K, 18009 kPa, x1 = 0.0893 | 1005.8
352.88 K, 18994 kPa, x1 = 0.0893 | 1006.2
352.88 K, 20015 kPa, x1 = 0.0893 | 1006.6
362.71 K, 1012 kPa, x1 = 0.0369 | 977.3
362.71 K, 2054 kPa, x1 = 0.0369 | 977.8
362.71 K, 3004 kPa, x1 = 0.0369 | 978.2
362.71 K, 3981 kPa, x1 = 0.0369 | 978.6
362.71 K, 4997 kPa, x1 = 0.0369 | 979.1
362.71 K, 6006 kPa, x1 = 0.0369 | 979.5
362.71 K, 7005 kPa, x1 = 0.0369 | 979.9
362.71 K, 7962 kPa, x1 = 0.0369 | 980.3
362.71 K, 8999 kPa, x1 = 0.0369 | 980.8
362.71 K, 9999 kPa, x1 = 0.0369 | 981.2
362.71 K, 10997 kPa, x1 = 0.0369 | 981.6
362.71 K, 11979 kPa, x1 = 0.0369 | 982
362.71 K, 12988 kPa, x1 = 0.0369 | 982.5
362.71 K, 13990 kPa, x1 = 0.0369 | 982.9
362.71 K, 14982 kPa, x1 = 0.0369 | 983.4
362.71 K, 15982 kPa, x1 = 0.0369 | 983.8
362.71 K, 16992 kPa, x1 = 0.0369 | 984.2
362.71 K, 17958 kPa, x1 = 0.0369 | 984.6
362.71 K, 18984 kPa, x1 = 0.0369 | 985.1
362.71 K, 19984 kPa, x1 = 0.0369 | 985.5
362.72 K, 1043 kPa, x1 = 0.1302 | 995.9
362.72 K, 2117 kPa, x1 = 0.1302 | 996.4
362.72 K, 3008 kPa, x1 = 0.1302 | 996.8
362.72 K, 3995 kPa, x1 = 0.1302 | 997.3
362.72 K, 5002 kPa, x1 = 0.1302 | 997.8
362.72 K, 5994 kPa, x1 = 0.1302 | 998.2
362.72 K, 6994 kPa, x1 = 0.1302 | 998.6
362.72 K, 8003 kPa, x1 = 0.1302 | 999.1
362.72 K, 8988 kPa, x1 = 0.1302 | 999.6
362.72 K, 9991 kPa, x1 = 0.1302 | 1000
362.72 K, 11003 kPa, x1 = 0.1302 | 1000.4
362.72 K, 12036 kPa, x1 = 0.1302 | 1000.9
362.72 K, 13005 kPa, x1 = 0.1302 | 1001.3
362.72 K, 13983 kPa, x1 = 0.1302 | 1001.7
362.72 K, 14984 kPa, x1 = 0.1302 | 1002.2
362.72 K, 15981 kPa, x1 = 0.1302 | 1002.6
362.72 K, 16993 kPa, x1 = 0.1302 | 1003
362.72 K, 17988 kPa, x1 = 0.1302 | 1003.5
362.72 K, 18994 kPa, x1 = 0.1302 | 1003.9
362.72 K, 19995 kPa, x1 = 0.1302 | 1004.4
362.75 K, 993 kPa, x1 = 0.0893 | 990.9
362.75 K, 2025 kPa, x1 = 0.0893 | 991.3
362.75 K, 3013 kPa, x1 = 0.0893 | 991.8
362.75 K, 3995 kPa, x1 = 0.0893 | 992.2
362.75 K, 5018 kPa, x1 = 0.0893 | 992.7
362.75 K, 6003 kPa, x1 = 0.0893 | 993.1
362.75 K, 6988 kPa, x1 = 0.0893 | 993.6
362.75 K, 8002 kPa, x1 = 0.0893 | 994
362.75 K, 8996 kPa, x1 = 0.0893 | 994.4
362.75 K, 10040 kPa, x1 = 0.0893 | 994.9
362.75 K, 11000 kPa, x1 = 0.0893 | 995.3
362.75 K, 11988 kPa, x1 = 0.0893 | 995.7
362.75 K, 12992 kPa, x1 = 0.0893 | 996.1
362.75 K, 13990 kPa, x1 = 0.0893 | 996.6
362.75 K, 14990 kPa, x1 = 0.0893 | 997
362.75 K, 15993 kPa, x1 = 0.0893 | 997.5
362.75 K, 17004 kPa, x1 = 0.0893 | 997.9
362.75 K, 17984 kPa, x1 = 0.0893 | 998.3
362.75 K, 19022 kPa, x1 = 0.0893 | 998.7
362.75 K, 19984 kPa, x1 = 0.0893 | 999.2
